Experimental data taken from US7256279B2, “Protein having ribonucleotide reductase activity and DNA thereof” (Takeda Pharmaceutical Company Limited, priority 1999, dated 2007).

Assays:
Type in all cases: cell-based
MCF7 cells [1] = assay: Short-term cell survival (cell numbers counted every day for 6 days) after oligonucleotide introduction and DNA damage; conditions: in both the short- and long-term, after DNA damage (Table 1 and FIG. 6)
Experimental: (§1) Short-term and long-term cell survival rates were also measured when TP53R2H expression was suppressed with an antisense oligonucleotide and DNA was damaged.
(§2) 2×10^6 MCF7 cells) were propagated on 10 cm Petri dishes, and after 24 hours a p53R2 antisense oligonucleotide (AS3), a sense oligonucleotide (SE3) and a p53 antisense oligonucleotide (p53AS) were introduced using a lipofectin reagent. 4 hours later the cellular DNA was damaged (3 or 14 Gy γ-ray irradiation, adiamycin 0.2 μg/ml, UV 10 J/m^2).
(§3) In order to study short-term cell survival, the cells were stripped immediately after DNA damage and re-propagated on 6-hole plates to a density of 3×10^5, and cell numbers were counted every day for 6 days. To study long-term cell survival, the cells were re-propagated after DNA damage on 10 cm plates to a density of 1×10^4 or 1×10^3, and the number of colonies 1 mm or more in diameter was counted after three weeks and expressed as a percentage.

MCF7 cells [2] = assay: Long-term cell survival (colony count after three weeks) after oligonucleotide introduction and DNA damage; conditions: colonies counted after three weeks
Experimental: as §1, §2, §3

MCF7 cells [3] = assay: DNA repair activity through ribonucleotide reductase activity ([3H]-CDP converted to [3H]-dCTP in damaged DNA) after oligonucleotide introduction; conditions: 14 Gy γ-ray irradiation 4 hours after lipofectin introduction, cells collected after 0, 24 and 48 hours (FIG. 5)
Experimental: DNA repair activity through ribonucleotide reductase activity was measured by converting [^3H]-CDP to [^3H]-dCTP through ribonucleotide reductase in cells, in which the DNA had been damaged, and measuring the radioactivity of [^3H]-dCTP in the damaged DNA.
1×10^6 MCF7 cells were propagated on 10 cm petri dishes, cellular DNA was damaged (14 Gy γ-ray irradiation) 24 hours later, and after 0, 6, 24 and 48 hours the cells were harvested. After washing the cells with Solution A (150 mM sucrose, 80 mM KCl, 35 mM Hepes (pH 7.4), 5 mM potassium phosphate (pH 7.4), 5 mM MgCl2, 0.5 mM CaCl2), these cells were treated for 1 minute at 4° C. with Solution A containing 0.25 mg/ml lysolecithin. […] 75 μl of 0.2N NaOH was added to the DNA obtained, which was then incubated for 30 minutes at 37° C. and mixed with 5 ml of AQUASOL-2 (Packard), and radioactivity was measured with an Aloka LSC-5100 liquid scintillation counter. […]
2×10^6 MCF7 cells were propagated on 10 cm petri dishes, and after 24 hours a TP53R2H antisense oligonucleotide (AS3) a sense oligonucleotide (SE3) and a p53 antisense oligonucleotide (p53AS) were introduced according to attached protocol using a lipofectin reagent (GIBCO BRL). […] DNA repair activity was then measured in the same way as in Example 4 above.

Substance	sensitivity to DNA damage / cell death (MCF7 cells [1])	long-term cell survival (number of colonies 1 mm or more in diameter, expressed as a percentage) (MCF7 cells [2]; Adriamycin (0.2 μg/ml))	long-term cell survival (number of colonies 1 mm or more in diameter, expressed as a percentage) (MCF7 cells [2]; UV (10 J/m2))	long-term cell survival (number of colonies 1 mm or more in diameter, expressed as a percentage) (MCF7 cells [2]; γ-radiation (3Gy))	DNA repair activity (MCF7 cells [3])
AsCsAsTsTsTsAsCsCsTsCsAsTsCsCsT (ACATTTACCTCATCCT; all phosphorothioate, sugars by position and methylation of C not given here) [AS3]	sensitivity to DNA damage increases and cell death is more likely	16%	22%	59%	DNA repair activity declined
AsGsGsAsTsGsAsGsGsTsAsAsAsTsGsT (AGGATGAGGTAAATGT; all phosphorothioate, sugars by position not given here) [SE3]		100%	100%	100%	
CsCsCsTsGsCsTsCsCsCsCsCsCsTsGsGsCsTsCsC (CCCTGCTCCCCCCTGGCTCC; all phosphorothioate, sugars by position and methylation of C not given here) [p53AS]		10%	11%	15%	DNA repair activity also declined
